One experiment has as its system CT-DNA. In words: DNA Thermal Denaturation Studies. The experiment is classed as binding. To be noted: 1:5 [PBD]/[DNA], CT-DNA 100 μM, ligand 20 μM, sodium phosphate buffer pH 7.00, values ±0.1–0.2° C.; for Induced […]Tm ° C. after incubation at 37° C. 0 h: 0 h at 37° C.; for Induced […]Tm ° C. after incubation at 37° C. 18 h: 18 h at 37° C. How it is done:
For CT-DNA alone at pH 7.00±0.01, Tm=69.8° C.±0.01 (mean value from 10 separate determinations), all ΔTm values are ±0.1–0.2° C. For a 1:5 molar ratio of [PBD]/[DNA], where CT-DNA concentration=100 μM and ligand concentration=20 μM in aqueous sodium phosphate buffer [10 mM sodium phosphate+1 mM EDTA, pH 7.00±0.01].

The test system of another experiment is HT-29. In words: In vitro cytotoxicity (SRB), percentage growth inhibition, HT-29. The experiment is classed as cell-based, human. Particulars: HT-29 (colon), 48 hours. How it is done:
(§1) In vitro cytotoxicity against human cancer cell lines: The human cancer cell lines procured from National Cancer Institute, Frederick, U.S.A or National Center for Cell Science; Pune, India. were used in present study. Cells were grown in tissue culture flasks in complete growth medium (RPMI-1640 medium with 2 mM glutamine, 100 μg/ml streptomycin, pH 7.4, sterilized by filtration and supplemented with 10% fetal calf serum and 100 units/ml penicillin before use) at 37° C. in an atmosphere of 5% CO2 and 90% relative humidity in a carbon dioxide incubator. The cells at subconfluent stage were harvested from the flask by treatment with trypsin (0.5% in PBS containing 0.02% EDTA) for determination of cytotoxicity. Cells with viability of more than 98% as determined by trypan blue exclusion were used for assay. The cell suspension of the required cell density were prepared in complete growth medium with gentamycin (50 μg/ml) for determination of cytotoxicity.
(§2) A stock solutions of (2×10^−2 M) of test material were prepared in DMSO. The stock solutions were serially diluted with complete growth medium containing 50 μg/ml of gentamycin to obtain working test solutions of required concentrations.
(§3) In vitro cytotoxicity against human cancer cell lines was determined (Monks, A., Scudiero, D., Skehan, P, Shoemaker R., Paull, K., Vistica, D., Hose, C., Langley, J., Cronise, P., Vaigro-Wolff, A., Gray-Goodrich, M., Campbell, H., Mayo, J and Boyd M. J. Natl. Cancer Inst., 1991, 83, 757–766) using 96-well tissue culture plates. The 100 μl of cell suspension was added to each well of the 96-well tissue culture plate. The cells were incubated for 24 hours. Test materials in complete growth medium (100 μl) were added after 24 hours incubation to the wells containing cell suspension. The plates were further incubated for 48 hours (at 37° C. in an atmosphere of […] 90% relative humidity in a carbon dioxide incubator) after addition of test material and then the cell growth was stopped by gently layering trichloroacetic acid (TCA, 50 μl, 50%) on top of the medium in all the wells. The plates were incubated at 4° C. for one hour to fix the cells attached to the bottom of the wells. The liquid of all the wells was gently pipetted out and discarded. The plates were washed five times with distilled water to remove TCA, growth medium low molecular weight metabolites, serum proteins etc and air-dried. Cell growth was measured by staining with sulforhodamine B dye (Skehan et al., 1990). The adsorbed dye was dissolved in Tris-Buffer ([…], 0.01 M, pH 10.4) and plates were gently stirred for 5 minutes on a mechanical stirrer. The optical density was recorded on ELISA reader at 540 nm.
(§4) The cell growth was calculated by subtracting mean OD value of respective blank from the mean OD value of experimental set. Percent growth in presence of test material was calculated considering the growth in absence of any test material as 100% and in turn percent growth inhibition in presence of test material will be calculated.

The subject of a further experiment is A-549. The experiment can be described thus: In vitro cytotoxicity (SRB), percentage growth inhibition, A-549. The experiment is classed as cell-based, human. Particulars: A-549 (lung), 48 hours. As for the experimental part: as §1, §2, §3, §4
The subject of another experiment is HOP-62. In words: In vitro cytotoxicity (SRB), percentage growth inhibition, HOP-62. The experiment is classed as cell-based, human. To be noted: HOP-62 (lung), 48 hours. How it is done: as §1, §2, §3, §4
A further experiment has as its system SiHa. The experiment can be described thus: In vitro cytotoxicity (SRB), percentage growth inhibition, SiHa. The experiment is classed as cell-based, human. To be noted: SiHa (cervix), 48 hours. How it is done: as §1, §2, §3, §4
A further experiment relates to HCT-15. In words: In vitro cytotoxicity (SRB), percentage growth inhibition, HCT-15. Particulars: HCT-15 (colon), 48 hours. The experiment is classed as cell-based, human. As for the experimental part:
as §1, §2, §3, §4

As to `COc1cc2c(cc1O)N=CC1CCCN1C2=O` (centres unmarked) [DC-81, reference compound], in the experiment on CT-DNA, the “Induced […]Tm ° C. after incubation at 37° C. 0 h” value was determined as 0.3 °C and the “Induced […]Tm ° C. after incubation at 37° C. 18 h” value was 0.7 °C.

For `COc1cc2c(cc1OCCCN1CCN(CCCN3C(=O)c4cccc5cccc(c45)C3=O)CC1)N=C[C@@H]1CCCN1C2=O` [VIIId, 7-Methoxy-8-{3-[4-[3-(1,3-dioxo-benz[de]isoquinolin-2-yl)propyl]piperazin-1-yl]propyl}-oxy-(11aS)-1,2,3,11a tetrahydro-5H-pyrrolo[2,1-c][1,4]benzodiazepin-5-one], the results for the “percentage growth inhibition HT-29” value with HT-29 (10^−4 mol/L), with HT-29 (10^−5 mol/L) and in the experiment with HT-29 (10^−6 mol/L) were 95%, 62% and 63%, respectively. For the same molecule, the “percentage growth inhibition A-549” value is given as 95% in the experiment with A-549 (10^−4 mol/L), 30% in the experiment with A-549 (10^−5 mol/L) and 51% with A-549 (10^−6 mol/L). Besides, the “percentage growth inhibition HOP-62” value with HOP-62 (10^−4 mol/L) was determined as 78%. In addition, the results for the “percentage growth inhibition SiHa” value in the experiment on SiHa (10^−4 mol/L), with SiHa (10^−5 mol/L) and with SiHa (10^−6 mol/L) were 85%, 65% and 31%, respectively. For the same molecule, the “Induced […]Tm ° C. after incubation at 37° C. 0 h” value in the experiment on CT-DNA turned out to be 13.1 °C. Besides, the “Induced […]Tm ° C. after incubation at 37° C. 18 h” value in the experiment with CT-DNA is 14.3 °C.

Regarding `COc1cc2c(cc1OCCCCN1CCN(CCCCN3C(=O)c4cccc5cccc(c45)C3=O)CC1)N=C[C@@H]1CCCN1C2=O` [VIIIe, 7-Methoxy-8-{4-[4-[4-(1,3-dioxo-benz[de]isoquinolin-2-yl)butyl]piperazin-1-yl]butyl}-oxy-(11aS)-1,2,3,11a tetrahydro-5H-pyrrolo[2,1-c][1,4]benzodiazepin-5-one], the “percentage growth inhibition HT-29” value in the experiment on HT-29 (10^−4 mol/L) is recorded as 92%; in the experiment with HT-29 (10^−5 mol/L), 78%; in the experiment with HT-29 (10^−6 mol/L), 67%. Also, the “percentage growth inhibition HCT-15” value with HCT-15 (10^−5 mol/L) is recorded as 62%; in the experiment on HCT-15 (10^−6 mol/L), 59%. Further, the “percentage growth inhibition A-549” value in the experiment with A-549 (10^−4 mol/L) is 93%. The “percentage growth inhibition HOP-62” value is 93% with HOP-62 (10^−5 mol/L) and 80% with HOP-62 (10^−6 mol/L). Besides, the “percentage growth inhibition SiHa” value with SiHa (10^−4 mol/L) was 42%; with SiHa (10^−5 mol/L) it was 40%; in the experiment with SiHa (10^−6 mol/L) it was 44%. The “Induced […]Tm ° C. after incubation at 37° C. 0 h” value with CT-DNA was 20.9 °C. Besides, the “Induced […]Tm ° C. after incubation at 37° C. 18 h” value in the experiment on CT-DNA was found to be 21.7 °C.

Turning to `COc1cc2c(cc1OCCCN1CCN(CCN3C(=O)c4cccc5cccc(c45)C3=O)CC1)N=C[C@@H]1CCCN1C2=O` [VIIIb, 7-Methoxy-8-{3-[4-[2-(1,3-dioxo-benz[de]isoquinolin-2-yl)ethyl]piperazin-1-yl]propyl}-oxy-(11aS)-1,2,3,11a tetrahydro-5H-pyrrolo[2,1-c][1,4]benzodiazepin-5-one], the “percentage growth inhibition HT-29” value in the experiment with HT-29 (10^−4 mol/L) turned out to be 88%; with HT-29 (10^−5 mol/L) it was 85%; in the experiment with HT-29 (10^−6 mol/L), 91%. For the same molecule, the results for the “percentage growth inhibition HCT-15” value in the experiment on HCT-15 (10^−5 mol/L) and with HCT-15 (10^−6 mol/L) were 59% and 58%, respectively. Further, the “percentage growth inhibition A-549” value in the experiment with A-549 (10^−4 mol/L) came to 88%. The figures for the “percentage growth inhibition HOP-62” value in the experiment on HOP-62 (10^−5 mol/L) and in the experiment on HOP-62 (10^−6 mol/L) were 86% and 72%, respectively. The “percentage growth inhibition SiHa” value is recorded as 44% in the experiment on SiHa (10^−5 mol/L) and 54% in the experiment with SiHa (10^−6 mol/L). In addition, the “Induced […]Tm ° C. after incubation at 37° C. 0 h” value in the experiment with CT-DNA was found to be 25.8 °C. Moreover, in the experiment with CT-DNA, the “Induced […]Tm ° C. after incubation at 37° C. 18 h” value worked out at 26.7 °C.

Take `COc1cc2c(cc1OCCCCN1CCN(CCN3C(=O)c4cccc5cccc(c45)C3=O)CC1)N=C[C@@H]1CCCN1C2=O` [VIIIc, 7-Methoxy-8-{4-[4-[2-(1,3-dioxo-benz[de]isoquinolin-2-yl)ethyl]piperazin-1-yl]butyl}-oxy-(11aS)-1,2,3,11a tetrahydro-5H-pyrrolo[2,1-c][1,4]benzodiazepin-5-one]: the results for the “percentage growth inhibition HT-29” value with HT-29 (10^−4 mol/L), with HT-29 (10^−5 mol/L) and in the experiment with HT-29 (10^−6 mol/L) were 94%, 86% and 80%, respectively. In addition, the “percentage growth inhibition HCT-15” value with HCT-15 (10^−5 mol/L) is 69%; with HCT-15 (10^−6 mol/L), 60%. Besides, the “percentage growth inhibition A-549” value in the experiment with A-549 (10^−4 mol/L) is on record as 95%. For the same molecule, the “percentage growth inhibition HOP-62” value with HOP-62 (10^−5 mol/L) is recorded as 93%; in the experiment with HOP-62 (10^−6 mol/L), 86%. Further, the results for the “percentage growth inhibition SiHa” value in the experiment with SiHa (10^−4 mol/L) and in the experiment on SiHa (10^−5 mol/L) were 56% and 39%, respectively. Besides, the “Induced […]Tm ° C. after incubation at 37° C. 0 h” value with CT-DNA amounted to 23.4 °C. Further, in the experiment on CT-DNA, the “Induced […]Tm ° C. after incubation at 37° C. 18 h” value amounted to 24.2 °C.

Take `COc1cc2c(cc1OCCN1CCN(CCN3C(=O)c4cccc5cccc(c45)C3=O)CC1)N=C[C@@H]1CCCN1C2=O` [VIIIa, 7-Methoxy-8-{2-[4-[2-(1,3-dioxo-benz[de]isoquinolin-2-yl)ethyl]piperazin-1-yl]ethyl}-oxy-(11aS)-1,2,3,11a tetrahydro-5H-pyrrolo[2,1-c][1,4]benzodiazepin-5-one]: in the experiment on CT-DNA, the “Induced […]Tm ° C. after incubation at 37° C. 0 h” value was 21.9 °C and the “Induced […]Tm ° C. after incubation at 37° C. 18 h” value came out at 22.7 °C.

For the origin of these results see patent US6979684B1, “Pyrrolo[2,1-c][1,4]benzodiazepine-napthalimide conjugates linked through piperazine moiety and process for preparation thereof” (Council of Scientific and Industrial Research, priority 2004, dated 2005).
